For orientation: Ki means the equilibrium dissociation constant of an inhibitor or competing ligand from its target.

Non-standard residues stand in square brackets, D forms with d. Residues, ends and D or L forms follow the SMILES beside them. *: point of attachment. X1 = O=C(C(F)(F)C(F)(F)C(F)(F)C(F)(F)C(F)(F)C(F)(F)C(F)(F)F)*; Adamantane1carbonyl = O=C(C12CC3CC(CC(C3)C1)C2)*; Benzoyl(4-Ph) = O=C(c1ccc(-c2ccccc2)cc1)*; Benzoyl(4-tBu) = CC(C)(C)c1ccc(C(=O)*)cc1; Butanoyl(3,3-Me2) = CC(C)(C)CC(=O)*; Stearoyl = CCCCCCCCCCCCCCCCCC(=O)*; X3 = O=C1NC2CSC(CCCCC(=O)*)C2N1; Nicotinoyl = O=C(c1cccnc1)*; Orn = NCCC[C@H](N)C(=O)O; Boc = CC(C)(C)OC(=O)*; Piv = CC(C)(C)C(=O)*; Bz = O=C(c1ccccc1)*

From ChEMBL document CHEMBL1127122, “Neurotensin receptor binding and antinociceptive activity for lipophilic N-amido neurotensin(913) analogs” (Bioorg Med Chem Lett, 1993) come the findings set out here.

The target in experiment [1] is Neurotensin receptor type 1 (Rattus norvegicus, UniProt P20789). In words: Binding affinity against rat neurotensin receptor.
Sequence of Neurotensin receptor type 1 (P20789 whole entry): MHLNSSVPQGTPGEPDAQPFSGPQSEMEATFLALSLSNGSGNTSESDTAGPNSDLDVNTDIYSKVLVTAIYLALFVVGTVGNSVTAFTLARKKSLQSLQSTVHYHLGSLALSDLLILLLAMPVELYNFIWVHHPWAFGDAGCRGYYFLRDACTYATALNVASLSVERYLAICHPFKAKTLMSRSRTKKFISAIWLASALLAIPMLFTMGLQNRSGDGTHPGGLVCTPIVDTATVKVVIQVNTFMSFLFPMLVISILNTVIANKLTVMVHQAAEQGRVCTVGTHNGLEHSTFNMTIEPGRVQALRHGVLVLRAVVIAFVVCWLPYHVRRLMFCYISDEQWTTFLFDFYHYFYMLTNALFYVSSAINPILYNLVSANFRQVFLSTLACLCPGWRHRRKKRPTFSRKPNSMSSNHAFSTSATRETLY
In experiment [2] the test system is Mus musculus. In words: Analgesic activity in fasted male mice in phenylquinone writhing assay 40 min after i.c.v. administration. The class given is functional. (Writhing tests count abdominal constrictions after an irritant is injected.)
The subject of experiment [3] is Mus musculus. Put plainly: Analgesic activity in fasted male mice in phenylquinone writhing assay 5 min after i.c.v. administration. The format is functional.
Experiment [4] concerns Mus musculus. Put plainly: Analgesic activity in fasted male mice in phenylquinone writhing assay 10 min after i.c.v. administration. The format is functional.
The subject of experiment [5] is Mus musculus. In words: Analgesic activity of i.v. administered compound in fasted male mice at 10 min. interval was determined using phenylquinone writhing assay. The note with it: iv. The class given is functional.
In experiment [6] the test system is Mus musculus. In words: Analgesic activity of i.v. administered compound in fasted male mice at 5 min. interval was determined using phenylquinone writhing assay. As to conditions: iv. The format is functional.

For `CC[C@H](C)[C@H](NC(=O)[C@H](Cc1ccc(O)cc1)NC(=O)[C@@H]1CCCN1C(=O)[C@H](CCCN)NC(=O)C12CC3CC(CC(C3)C1)C2)C(=O)N[C@@H](CC(C)C)C(=O)O` (Adamantane1carbonyl-[Orn]PYIL-OH) [listing 1 of 2 here], the inhibitory constant (Ki) in experiment [1] amounted to 0.18 µM.

Consider `CC[C@H](C)[C@H](NC(=O)[C@H](Cc1ccc(O)cc1)NC(=O)[C@@H]1CCCN1C(=O)[C@H](CCCN)NC(=O)C12CC3CC(CC(C3)C1)C2)C(=O)N[C@@H](CC(C)C)C(=O)O` (Adamantane1carbonyl-[Orn]PYIL-OH) [listing 2 of 2 here], for which the ED50 in the experiment on Mus musculus [2] was 3.6 ug mouse-1; in the experiment with Mus musculus [3], 0.13 ug mouse-1; in the experiment with Mus musculus [4], 0.45 ug mouse-1; in the experiment on Mus musculus [5] it was 11 mg/kg; in the experiment with Mus musculus [6], 4.8 mg/kg.

`CC[C@H](C)[C@H](NC(=O)[C@H](Cc1ccc(O)cc1)NC(=O)[C@@H]1CCCN1C(=O)[C@H](CCCCN)NC(=O)OC(C)(C)C)C(=O)N[C@@H](CC(C)C)C(=O)O` (Boc-KPYIL-OH): the ED50 in the experiment on Mus musculus [2] was determined as 0.2 ug mouse-1; in the experiment on Mus musculus [3], 0.02 ug mouse-1; with Mus musculus [4] it was 0.11 ug mouse-1; in the experiment on Mus musculus [5] it was 6.5 mg/kg; with Mus musculus [6] it was 3.1 mg/kg.

For the compound `CC[C@H](C)[C@H](NC(=O)[C@H](Cc1ccc(O)cc1)NC(=O)[C@@H]1CCCN1C(=O)[C@H](CCCN)NC(=O)OC(C)(C)C)C(=O)N[C@@H](CC(C)C)C(=O)O` (Boc-[Orn]PYIL-OH), the ED50 with Mus musculus [2] is 0.69 ug mouse-1; with Mus musculus [3], 0.00084 ug mouse-1; in the experiment with Mus musculus [4], 0.044 ug mouse-1; in the experiment with Mus musculus [5] it was 2 mg/kg; in the experiment on Mus musculus [6], 0.85 mg/kg.

The compound `CC[C@H](C)[C@H](NC(=O)[C@H](Cc1ccc(O)cc1)NC(=O)[C@@H]1CCCN1C(=O)[C@H](CCCCN)NC(=O)c1ccccc1)C(=O)N[C@@H](CC(C)C)C(=O)O` (Bz-KPYIL-OH) [listing 1 of 2 here] came in with a Ki in experiment [1] of 0.1 µM.

With `CC[C@H](C)[C@H](NC(=O)[C@H](Cc1ccc(O)cc1)NC(=O)[C@@H]1CCCN1C(=O)[C@H](CCCCN)NC(=O)c1ccccc1)C(=O)N[C@@H](CC(C)C)C(=O)O` (Bz-KPYIL-OH) [listing 2 of 2 here], the ED50 was 1.5 ug mouse-1 in the experiment with Mus musculus [2]; 0.0088 ug mouse-1 with Mus musculus [3]; 0.16 ug mouse-1 in the experiment on Mus musculus [4]; 5.5 mg/kg with Mus musculus [5]; 6.6 mg/kg in the experiment on Mus musculus [6].

In experiment [1], `CC[C@H](C)[C@H](NC(=O)[C@H](Cc1ccc(O)cc1)NC(=O)[C@@H]1CCCN1C(=O)[C@@H](N)CCCN)C(=O)N[C@@H](CC(C)C)C(=O)O` (H-[Orn]PYIL-OH) [listing 1 of 2 here] came in with a Ki of 0.52 µM.

On to `CC[C@H](C)[C@H](NC(=O)[C@H](Cc1ccc(O)cc1)NC(=O)[C@@H]1CCCN1C(=O)[C@@H](N)CCCN)C(=O)N[C@@H](CC(C)C)C(=O)O` (H-[Orn]PYIL-OH) [listing 2 of 2 here], for which the ED50 is given as 67 ug mouse-1 in the experiment with Mus musculus [2], 23 ug mouse-1 with Mus musculus [3] and 20 ug mouse-1 in the experiment with Mus musculus [4].

`CC[C@H](C)[C@H](NC(=O)[C@H](Cc1ccc(O)cc1)NC(=O)[C@@H]1CCCN1C(=O)[C@H](CCCCN)NC(=O)c1cccnc1)C(=O)N[C@@H](CC(C)C)C(=O)O` (Nicotinoyl-KPYIL-OH) [listing 1 of 2 here] returned a Ki in experiment [1] of 0.42 µM.

`CC[C@H](C)[C@H](NC(=O)[C@H](Cc1ccc(O)cc1)NC(=O)[C@@H]1CCCN1C(=O)[C@H](CCCCN)NC(=O)c1cccnc1)C(=O)N[C@@H](CC(C)C)C(=O)O` (Nicotinoyl-KPYIL-OH) [listing 2 of 2 here]: the ED50 came out at 0.3 ug mouse-1 with Mus musculus [2]; 0.0016 ug mouse-1 in the experiment with Mus musculus [3]; 0.016 ug mouse-1 with Mus musculus [4]; 3 mg/kg in the experiment with Mus musculus [5]; 3.6 mg/kg in the experiment with Mus musculus [6].

`CC[C@H](C)[C@H](NC(=O)[C@H](Cc1ccc(O)cc1)NC(=O)[C@@H]1CCCN1C(=O)[C@H](CCCCN)NC(=O)C(C)(C)C)C(=O)N[C@@H](CC(C)C)C(=O)O` (Piv-KPYIL-OH) [listing 1 of 2 here]: affinity in experiment [1] was put at a Ki of 0.19 µM.

`CC[C@H](C)[C@H](NC(=O)[C@H](Cc1ccc(O)cc1)NC(=O)[C@@H]1CCCN1C(=O)[C@H](CCCCN)NC(=O)C(C)(C)C)C(=O)N[C@@H](CC(C)C)C(=O)O` (Piv-KPYIL-OH) [listing 2 of 2 here]: the ED50 in the experiment with Mus musculus [2] was found to be 0.7 ug mouse-1; in the experiment with Mus musculus [3], 0.28 ug mouse-1; in the experiment with Mus musculus [4], 0.29 ug mouse-1; with Mus musculus [5], 15 mg/kg; in the experiment with Mus musculus [6] it was 15 mg/kg.

With `CCCCCCCCCCCCCCCCCC(=O)N[C@@H](CCCCN)C(=O)N1CCC[C@H]1C(=O)N[C@@H](Cc1ccc(O)cc1)C(=O)N[C@H](C(=O)N[C@@H](CC(C)C)C(=O)O)[C@@H](C)CC` (Stearoyl-KPYIL-OH), the ED50 was greater than 50 ug mouse-1 with Mus musculus [2], 38 ug mouse-1 in the experiment with Mus musculus [3] and greater than 50 ug mouse-1 with Mus musculus [4].

As for `CC[C@H](C)[C@H](NC(=O)[C@H](Cc1ccc(O)cc1)NC(=O)[C@@H]1CCCN1C(=O)[C@H](CCCCN)NC(=O)C(F)(F)C(F)(F)C(F)(F)C(F)(F)C(F)(F)C(F)(F)C(F)(F)F)C(=O)N[C@@H](CC(C)C)C(=O)O` (X1-KPYIL-OH), the ED50 in the experiment on Mus musculus [2] came out at 4.4 ug mouse-1; in the experiment on Mus musculus [3], 2.2 ug mouse-1; with Mus musculus [4], 3.7 ug mouse-1; with Mus musculus [5], 17 mg/kg; with Mus musculus [6], 32 mg/kg.

As for `CC[C@H](C)[C@H](NC(=O)[C@H](Cc1ccc(O)cc1)NC(=O)[C@@H]1CCCN1C(=O)[C@H](CCCCN)NC(=O)CCCCC1SCC2NC(=O)NC21)C(=O)N[C@@H](CC(C)C)C(=O)O` (some centres undefined) (X3-KPYIL-OH), the ED50 in the experiment with Mus musculus [2] was 8.3 ug mouse-1; in the experiment on Mus musculus [3] it was 0.86 ug mouse-1; in the experiment with Mus musculus [4] it was 2 ug mouse-1; with Mus musculus [5] it was no less than 81 mg/kg; in the experiment with Mus musculus [6] it was greater than 81 mg/kg.

Turning to `CC[C@H](C)[C@H](NC(=O)[C@H](Cc1ccc(O)cc1)NC(=O)[C@@H]1CCCN1C(=O)[C@H](CCCCN)NC(=O)c1ccc(-c2ccccc2)cc1)C(=O)N[C@@H](CC(C)C)C(=O)O` ({Benzoyl(4-Ph)}-KPYIL-OH), the ED50 was 50 ug mouse-1 with Mus musculus [2]; 1.7 ug mouse-1 with Mus musculus [3]; 2.8 ug mouse-1 in the experiment with Mus musculus [4]; 13 mg/kg in the experiment on Mus musculus [5]; less than 27 mg/kg in the experiment with Mus musculus [6].

As to `CC[C@H](C)[C@H](NC(=O)[C@H](Cc1ccc(O)cc1)NC(=O)[C@@H]1CCCN1C(=O)[C@H](CCCCN)NC(=O)c1ccc(C(C)(C)C)cc1)C(=O)N[C@@H](CC(C)C)C(=O)O` ({Benzoyl(4-tBu)}-KPYIL-OH), the ED50 in the experiment on Mus musculus [2] was 0.32 ug mouse-1; with Mus musculus [3], 0.075 ug mouse-1; with Mus musculus [4] it was 0.088 ug mouse-1; in the experiment with Mus musculus [5], 6.6 mg/kg; in the experiment on Mus musculus [6], 12 mg/kg.

Take `CC[C@H](C)[C@H](NC(=O)[C@H](Cc1ccc(O)cc1)NC(=O)[C@@H]1CCCN1C(=O)[C@H](CCCCN)NC(=O)CC(C)(C)C)C(=O)N[C@@H](CC(C)C)C(=O)O` ({Butanoyl(3,3-Me2)}-KPYIL-OH): the ED50 is 1.2 ug mouse-1 in the experiment with Mus musculus [2]; 0.095 ug mouse-1 in the experiment with Mus musculus [3]; 0.1 ug mouse-1 in the experiment with Mus musculus [4]; 4.9 mg/kg in the experiment with Mus musculus [5]; 6.2 mg/kg in the experiment on Mus musculus [6].

Regarding Ac-KPYIL-OH, the ED50 with Mus musculus [2], in the experiment with Mus musculus [3] and in the experiment with Mus musculus [4] was less than 50 ug mouse-1 each time.

H-KPYIL-OH: the ED50 in the experiment on Mus musculus [2] is 26 ug mouse-1; in the experiment on Mus musculus [3] it was 8 ug mouse-1; with Mus musculus [4] it was 10 ug mouse-1; with Mus musculus [5] it was greater than 81 mg/kg; in the experiment with Mus musculus [6], greater than 81 mg/kg.
